{"source": "paper PMC4716540", "about": "(British Journal of Cancer, 2015)", "system": "patients with confirmed relapsed/refractory MM, CLL, or NHL", "assay": "Phase I safety and tolerability: adverse events, DLT, MTD, RP2D", "assay_type": "in vivo, human", "note": "Entries after “also recorded” stand apart in the source; their conditions may differ.", "data": [{"compound": "CCc1c(O)cc(O)c(C(=O)c2ccc(OCCN3CCOCC3)c(OC)c2)c1CC(=O)N(CCOC)CCOC", "note": "[KW-2478]", "values": [{"measurement": "Abdominal pain (any AE)", "setting": "99 mg m^–2 (n=4)", "result": "1 (25.0) No. of patients (%)"}, {"measurement": "Acne (any AE)", "setting": "99 mg m^–2 (n=4)", "result": "0 No. of patients (%)"}, {"measurement": "Anaemia (any AE)", "setting": "99 mg m^–2 (n=4)", "result": "0 No. of patients (%)"}, {"measurement": "Anorexia (any AE)", "setting": "99 mg m^–2 (n=4)", "result": "0 No. of patients (%)"}, {"measurement": "Back pain (any AE)", "setting": "99 mg m^–2 (n=4)", "result": "2 (50.0) No. of patients (%)"}, {"measurement": "Diarrhoea (any AE)", "setting": "99 mg m^–2 (n=4)", "result": "2 (50.0) No. of patients (%)"}, {"measurement": "Dizziness (any AE)", "setting": "99 mg m^–2 (n=4)", "result": "0 No. of patients (%)"}, {"measurement": "Fatigue (any AE)", "setting": "99 mg m^–2 (n=4)", "result": "2 (50.0) No. of patients (%)"}, {"measurement": "Haemoglobin decreased (any AE)", "setting": "99 mg m^–2 (n=4)", "result": "0 No. of patients (%)"}, {"measurement": "Hair disorder (any AE)", "setting": "99 mg m^–2 (n=4)", "result": "0 No. of patients (%)"}, {"measurement": "Headache (any AE)", "setting": "99 mg m^–2 (n=4)", "result": "2 (50.0) No. of patients (%)"}, {"measurement": "Herpes simplex infection (any AE)", "setting": "99 mg m^–2 (n=4)", "result": "0 No. of patients (%)"}, {"measurement": "Hypertension (any AE)", "setting": "99 mg m^–2 (n=4)", "result": "1 (25.0) No. of patients (%)"}, {"measurement": "LRTI (any AE)", "setting": "99 mg m^–2 (n=4)", "result": "0 No. of patients (%)"}, {"measurement": "Musculoskeletal chest pain (any AE)", "setting": "99 mg m^–2 (n=4)", "result": "1 (25.0) No. of patients (%)"}, {"measurement": "Nausea (any AE)", "setting": "99 mg m^–2 (n=4)", "result": "1 (25.0) No. of patients (%)"}, {"measurement": "Oral herpes (any AE)", "setting": "99 mg m^–2 (n=4)", "result": "1 (25.0) No. of patients (%)"}, {"measurement": "Rhinitis (any AE)", "setting": "99 mg m^–2 (n=4)", "result": "0 No. of patients (%)"}, {"measurement": "Serious AE", "setting": "99 mg m^–2 (n=4)", "result": "2 (50) No. of patients (%)"}, {"measurement": "Treatment-related AE", "setting": "99 mg m^–2 (n=4)", "result": "3 (75.0) No. of patients (%)"}, {"measurement": "Vomiting (any AE)", "setting": "99 mg m^–2 (n=4)", "result": "1 (25.0) No. of patients (%)"}, {"measurement": "AE (treatment-emergent)", "setting": "132 mg m^–2 (n=6)", "result": "6 (100.0) No. of patients (%)"}, {"measurement": "Abdominal pain (any AE)", "setting": "132 mg m^–2 (n=6)", "result": "2 (33.3) No. of patients (%)"}, {"measurement": "Acne (any AE)", "setting": "132 mg m^–2 (n=6)", "result": "0 No. of patients (%)"}, {"measurement": "Anaemia (any AE)", "setting": "132 mg m^–2 (n=6)", "result": "0 No. of patients (%)"}, {"measurement": "Anorexia (any AE)", "setting": "132 mg m^–2 (n=6)", "result": "1 (16.7) No. of patients (%)"}, {"measurement": "Back pain (any AE)", "setting": "132 mg m^–2 (n=6)", "result": "1 (16.7) No. of patients (%)"}, {"measurement": "Diarrhoea (any AE)", "setting": "132 mg m^–2 (n=6)", "result": "3 (50.0) No. of patients (%)"}, {"measurement": "Dizziness (any AE)", "setting": "132 mg m^–2 (n=6)", "result": "1 (16.7) No. of patients (%)"}, {"measurement": "Fatigue (any AE)", "setting": "132 mg m^–2 (n=6)", "result": "1 (16.7) No. of patients (%)"}, {"measurement": "Haemoglobin decreased (any AE)", "setting": "132 mg m^–2 (n=6)", "result": "2 (33.3) No. of patients (%)"}, {"measurement": "Hair disorder (any AE)", "setting": "132 mg m^–2 (n=6)", "result": "0 No. of patients (%)"}, {"measurement": "Headache (any AE)", "setting": "132 mg m^–2 (n=6)", "result": "4 (66.7) No. of patients (%)"}, {"measurement": "Herpes simplex infection (any AE)", "setting": "132 mg m^–2 (n=6)", "result": "0 No. of patients (%)"}, {"measurement": "Hypertension (any AE)", "setting": "132 mg m^–2 (n=6)", "result": "2 (33.3) No. of patients (%)"}, {"measurement": "LRTI (any AE)", "setting": "132 mg m^–2 (n=6)", "result": "1 (16.7) No. of patients (%)"}, {"measurement": "Musculoskeletal chest pain (any AE)", "setting": "132 mg m^–2 (n=6)", "result": "2 (33.3) No. of patients (%)"}, {"measurement": "Nausea (any AE)", "setting": "132 mg m^–2 (n=6)", "result": "2 (33.3) No. of patients (%)"}, {"measurement": "Oral herpes (any AE)", "setting": "132 mg m^–2 (n=6)", "result": "0 No. of patients (%)"}, {"measurement": "Rhinitis (any AE)", "setting": "132 mg m^–2 (n=6)", "result": "4 (66.7) No. of patients (%)"}, {"measurement": "Serious AE", "setting": "132 mg m^–2 (n=6)", "result": "3 (50.0) No. of patients (%)"}, {"measurement": "Treatment-related AE", "setting": "132 mg m^–2 (n=6)", "result": "5 (83.3) No. of patients (%)"}, {"measurement": "Vomiting (any AE)", "setting": "132 mg m^–2 (n=6)", "result": "3 (50.0) No. of patients (%)"}, {"measurement": "Number of treatment-related AEs per patient (average)", "setting": "176 mg m^–2", "result": 9.2}, {"measurement": "AE (treatment-emergent)", "setting": "176 mg m^–2 (n=7)", "result": "7 (100.0) No. of patients (%)"}, {"measurement": "Abdominal pain (any AE)", "setting": "176 mg m^–2 (n=7)", "result": "0 No. of patients (%)"}, {"measurement": "Acne (any AE)", "setting": "176 mg m^–2 (n=7)", "result": "0 No. of patients (%)"}, {"measurement": "Anaemia (any AE)", "setting": "176 mg m^–2 (n=7)", "result": "3 (42.9) No. of patients (%)"}, {"measurement": "Anorexia (any AE)", "setting": "176 mg m^–2 (n=7)", "result": "2 (28.6) No. of patients (%)"}, {"measurement": "Back pain (any AE)", "setting": "176 mg m^–2 (n=7)", "result": "0 No. of patients (%)"}, {"measurement": "Diarrhoea (any AE)", "setting": "176 mg m^–2 (n=7)", "result": "4 (57.1) No. of patients (%)"}, {"measurement": "Dizziness (any AE)", "setting": "176 mg m^–2 (n=7)", "result": "0 No. of patients (%)"}, {"measurement": "Fatigue (any AE)", "setting": "176 mg m^–2 (n=7)", "result": "4 (57.1) No. of patients (%)"}, {"measurement": "Haemoglobin decreased (any AE)", "setting": "176 mg m^–2 (n=7)", "result": "0 No. of patients (%)"}, {"measurement": "Hair disorder (any AE)", "setting": "176 mg m^–2 (n=7)", "result": "0 No. of patients (%)"}, {"measurement": "Headache (any AE)", "setting": "176 mg m^–2 (n=7)", "result": "2 (28.6) No. of patients (%)"}, {"measurement": "Herpes simplex infection (any AE)", "setting": "176 mg m^–2 (n=7)", "result": "1 (14.3) No. of patients (%)"}, {"measurement": "Hypertension (any AE)", "setting": "176 mg m^–2 (n=7)", "result": "0 No. of patients (%)"}, {"measurement": "LRTI (any AE)", "setting": "176 mg m^–2 (n=7)", "result": "2 (28.6) No. of patients (%)"}, {"measurement": "Musculoskeletal chest pain (any AE)", "setting": "176 mg m^–2 (n=7)", "result": "1 (14.3) No. of patients (%)"}, {"measurement": "Nausea (any AE)", "setting": "176 mg m^–2 (n=7)", "result": "0 No. of patients (%)"}, {"measurement": "Oral herpes (any AE)", "setting": "176 mg m^–2 (n=7)", "result": "1 (14.3) No. of patients (%)"}, {"measurement": "Rhinitis (any AE)", "setting": "176 mg m^–2 (n=7)", "result": "3 (42.9) No. of patients (%)"}, {"measurement": "Serious AE", "setting": "176 mg m^–2 (n=7)", "result": "1 (14.3) No. of patients (%)"}, {"measurement": "Treatment-related AE", "setting": "176 mg m^–2 (n=7)", "result": "5 (71.4) No. of patients (%)"}, {"measurement": "Vomiting (any AE)", "setting": "176 mg m^–2 (n=7)", "result": "1 (14.3) No. of patients (%)"}, {"measurement": "Dose-limiting toxicities (DLTs)", "setting": "14–176 mg m^–2 iv once daily days 1–5 of 14-day cycle, first cycle", "result": "no dose-limiting toxicities; also recorded: no DLTs"}, {"measurement": "Changes in haematological or biochemistry values, vital signs, body weight, ECG results", "setting": "all doses", "result": "no clinically meaningful changes"}, {"measurement": "Neurotoxicity and thrombocytopenia", "setting": "all doses", "result": "no apparent neurotoxicity nor significant thrombocytopenia"}, {"measurement": "Tolerability", "setting": "all doses", "result": "safe and well tolerated"}, {"measurement": "Treatment-related AEs ⩾grade 3", "setting": "all doses", "result": "rare"}, {"measurement": "Total number of treatment-related AEs reported", "setting": "all doses, all cycles", "result": 127}, {"measurement": "Total number of AEs reported", "setting": "all doses, all cycles, 27 patients", "result": 282}, {"measurement": "AE: diarrhoea", "setting": "all doses, all cycles, N=27", "result": 48.1, "unit": "%"}, {"measurement": "AE: fatigue", "setting": "all doses, all cycles, N=27", "result": 33.3, "unit": "%"}, {"measurement": "AE: headache", "setting": "all doses, all cycles, N=27", "result": 40.7, "unit": "%"}, {"measurement": "AE: rhinitis", "setting": "all doses, all cycles, N=27", "result": 40.7, "unit": "%"}, {"measurement": "Patients reporting AEs", "setting": "all doses, all cycles, N=27", "result": 100, "unit": "%"}, {"measurement": "Patients reporting treatment-related AEs", "setting": "all doses, all cycles, N=27", "result": 77.8, "unit": "%"}, {"measurement": "Mean blood pressure", "setting": "all patients during the study", "result": "no apparent dose-related increase"}, {"measurement": "Maximum-tolerated dose (MTD)", "setting": "doses up to 176 mg m^–2", "result": "not reached"}, {"measurement": "Grade 3/4 AEs considered possibly treatment-related", "setting": "lethargy (two episodes) and syncope, QT prolongation, neutrophil decrease", "result": "five events in three patients"}, {"measurement": "Recommended phase II dose (RP2D)", "setting": "once daily on days 1–5 every 2 weeks, highest dose tested", "result": 176, "unit": "mg m^–2"}, {"measurement": "Treatment-related AE: diarrhoea", "setting": "per patient, all doses, N=27", "result": 33.3, "unit": "%"}, {"measurement": "Treatment-related AE: dizziness", "setting": "per patient, all doses, N=27", "result": 7.4, "unit": "%"}, {"measurement": "Treatment-related AE: fatigue", "setting": "per patient, all doses, N=27", "result": 29.6, "unit": "%"}, {"measurement": "Treatment-related AE: headache", "setting": "per patient, all doses, N=27", "result": 25.9, "unit": "%"}, {"measurement": "Treatment-related AE: nausea", "setting": "per patient, all doses, N=27", "result": 14.8, "unit": "%"}, {"measurement": "Treatment-related AE: vomiting", "setting": "per patient, all doses, N=27", "result": 7.4, "unit": "%"}, {"measurement": "Deaths during the study, relation to study medication", "setting": "two patients, bronchopneumonia and lower respiratory tract infection", "result": "unrelated to study medication"}]}]}
